# In patent US10710978B2, “STK4 inhibitors for treatment of hematologic malignancies” (Dana-Farber Cancer Institute, Inc., priority 2015, dated 2020):
# Where two headings read alike, the source gives them in different places.
# Legend:
# [1] = target: STK24 (MST3) (Homo sapiens (Human), UniProt Q9Y6E0); assay: Z-lyte biochemical IC50 assay (Invitrogen); conditions: ATP concentration matched the Km
# Procedure, shortened: (§1)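 FRET-based Z-lyte kinase assays run at Invitrogen, ATP at each kinase's Km; for STK4, 6.25-160 ng enzyme with 2 μM Ser/Thr 07 peptide in HEPES pH 7.5, MgCl2, EGTA, Brij-35, 1 h reaction then development reagent. 10-point 3-fold titration from 10 μM.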
# [2] = target: STK4 (MST1) (Homo sapiens (Human), UniProt Q13043); assay: Z-lyte biochemical IC50 assay (Invitrogen); conditions: ATP concentration matched the Km
# Procedure, shortened: as §1
# [3] = target: AGK (Homo sapiens (Human), UniProt Q53H12); assay: KiNativ assay; assay type: binding; conditions: H929 live cell
# Procedure, shortened: (§2)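 Live H929 cells, compound 10 μM, duplicate; KiNativ probe profiling; IC50 by MS.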
# [4] = target: ATM (Homo sapiens (Human), UniProt Q13315); assay: KiNativ assay; assay type: binding; conditions: H929 live cell
# Procedure, shortened: as §2
# [5] = target: CDC2 (Homo sapiens (Human), UniProt P06493); assay: KiNativ assay; assay type: binding; conditions: H929 live cell
# Protocol: (§3) Biochemical IC50s of the compounds of the present disclosure against various kinases were measured in a KiNativ assay. Compounds were screened in duplicate at 10 μM in H929 live cell. IC50 was measured via Mass spectroscopy (MS).
# [6] = test system: CDK11, CDK8; assay: KiNativ assay; assay type: binding; conditions: H929 live cell
# Protocol: as §3
# [7] = target: CDK6 (Homo sapiens (Human), UniProt Q00534); assay: KiNativ assay; assay type: binding; conditions: H929 live cell
# Protocol: as §3
# [8] = target: CHK2 (Homo sapiens (Human), UniProt O96017); assay: KiNativ assay; assay type: binding; conditions: H929 live cell
# Protocol: as §3
# [9] = target: CLK2 (Homo sapiens (Human), UniProt P49760); assay: KiNativ assay; assay type: binding; conditions: H929 live cell
# Protocol: as §3
# [10] = target: CaMK2d (Homo sapiens (Human), UniProt Q13557); assay: KiNativ assay; assay type: binding; conditions: H929 live cell
# Protocol: as §3
# [11] = target: Erk2 (Homo sapiens (Human), UniProt P28482); assay: KiNativ assay; assay type: binding; conditions: H929 live cell
# Protocol: as §3
# [12] = target: IKKb (Homo sapiens (Human), UniProt O14920); assay: KiNativ assay; assay type: binding; conditions: H929 live cell
# Protocol: as §3
# [13] = target: IRAK1 (Homo sapiens (Human), UniProt P51617); assay: KiNativ assay; assay type: binding; conditions: H929 live cell
# Protocol: as §3
# [14] = test system: JNK1, JNK2, JNK3; assay: KiNativ assay; assay type: binding; conditions: H929 live cell
# Protocol: as §3
# [15] = target: KHS1 (Homo sapiens (Human), UniProt Q9Y4K4); assay: KiNativ assay; assay type: binding; conditions: H929 live cell
# Protocol: as §3
# [16] = target: LATS2 (Homo sapiens (Human), UniProt Q9NRM7); assay: KiNativ assay; assay type: binding; conditions: H929 live cell
# Procedure, shortened: (§4)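 IC50 values came from MS analysis in a KiNativ format, following compound exposure of live H929 cells at 10 μM, tested twice.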
# [17] = target: LZK (Homo sapiens (Human), UniProt O43283); assay: KiNativ assay; assay type: binding; conditions: H929 live cell
# Procedure, shortened: as §2
# [18] = target: MAP3K3 (Homo sapiens (Human), UniProt Q99759); assay: KiNativ assay; assay type: binding; conditions: H929 live cell
# Procedure, shortened: as §2
# [19] = target: MARK4 (Homo sapiens (Human), UniProt Q96L34); assay: KiNativ assay; assay type: binding; conditions: H929 live cell
# Protocol: as §3
# [20] = test system: MAST1, MAST2; assay: KiNativ assay; assay type: binding; conditions: H929 live cell
# Procedure, shortened: as §4
# [21] = target: NEK4 (Homo sapiens (Human), UniProt P51957); assay: KiNativ assay; assay type: binding; conditions: H929 live cell
# Protocol: as §3
# [22] = target: PCTAIRE1 (Homo sapiens (Human), UniProt Q00536); assay: KiNativ assay; assay type: binding; conditions: H929 live cell
# Procedure, shortened: as §2
# [23] = target: PHKg2 (Homo sapiens (Human), UniProt P15735); assay: KiNativ assay; assay type: binding; conditions: H929 live cell
# Protocol: as §3
# [24] = target: PIP4K2A (Homo sapiens (Human), UniProt P48426); assay: KiNativ assay; assay type: binding; conditions: H929 live cell
# Protocol: as §3
# [25] = target: RSK1 domain1 (Homo sapiens (Human), UniProt Q15418); assay: KiNativ assay; assay type: binding; conditions: H929 live cell
# Protocol: as §3
# [26] = target: ULK3 (Homo sapiens (Human), UniProt Q6PHR2); assay: KiNativ assay; assay type: binding; conditions: H929 live cell
# Procedure, shortened: as §4
# [27] = target: p38a (Homo sapiens (Human), UniProt Q16539); assay: KiNativ assay; assay type: binding; conditions: H929 live cell, range class, read-out: % inhibition
# Procedure, shortened: as §2
# [28] = range class, read-out: % inhibition
# CLK2, sequence (P49760 whole entry): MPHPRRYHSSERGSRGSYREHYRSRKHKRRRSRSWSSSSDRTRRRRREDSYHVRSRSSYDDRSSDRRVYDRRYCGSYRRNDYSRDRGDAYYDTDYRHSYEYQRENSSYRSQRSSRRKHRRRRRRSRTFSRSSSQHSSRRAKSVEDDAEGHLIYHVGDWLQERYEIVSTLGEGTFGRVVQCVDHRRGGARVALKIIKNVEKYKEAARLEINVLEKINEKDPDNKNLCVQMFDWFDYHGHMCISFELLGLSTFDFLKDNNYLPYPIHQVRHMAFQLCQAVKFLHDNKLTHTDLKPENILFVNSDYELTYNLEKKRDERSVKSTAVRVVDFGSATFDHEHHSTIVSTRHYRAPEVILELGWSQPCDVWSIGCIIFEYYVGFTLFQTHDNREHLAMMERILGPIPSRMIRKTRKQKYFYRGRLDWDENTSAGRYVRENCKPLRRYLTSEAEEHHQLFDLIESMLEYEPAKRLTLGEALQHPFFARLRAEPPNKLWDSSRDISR
# RSK1 domain1, sequence (Q15418 whole entry, the tested form may be a part): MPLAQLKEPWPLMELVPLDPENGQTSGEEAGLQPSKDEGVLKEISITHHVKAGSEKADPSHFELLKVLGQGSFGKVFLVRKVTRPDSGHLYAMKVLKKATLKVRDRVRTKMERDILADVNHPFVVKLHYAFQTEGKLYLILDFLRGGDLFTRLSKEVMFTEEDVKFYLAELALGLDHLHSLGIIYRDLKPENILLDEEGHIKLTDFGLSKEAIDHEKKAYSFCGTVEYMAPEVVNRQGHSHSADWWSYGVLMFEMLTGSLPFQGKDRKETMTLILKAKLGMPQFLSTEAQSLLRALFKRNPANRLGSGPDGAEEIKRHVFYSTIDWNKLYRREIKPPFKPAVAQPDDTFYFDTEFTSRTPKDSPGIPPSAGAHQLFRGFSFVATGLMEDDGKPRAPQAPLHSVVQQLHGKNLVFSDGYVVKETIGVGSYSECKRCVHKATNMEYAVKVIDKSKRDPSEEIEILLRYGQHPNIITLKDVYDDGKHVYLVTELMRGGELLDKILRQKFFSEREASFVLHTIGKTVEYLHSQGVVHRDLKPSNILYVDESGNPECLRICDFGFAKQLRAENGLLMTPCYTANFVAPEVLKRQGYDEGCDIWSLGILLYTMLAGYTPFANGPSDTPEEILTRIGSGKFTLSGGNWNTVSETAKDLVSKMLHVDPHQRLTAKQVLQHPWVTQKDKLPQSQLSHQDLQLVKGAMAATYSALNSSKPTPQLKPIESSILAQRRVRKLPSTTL
# PIP4K2A, sequence (P48426 whole entry): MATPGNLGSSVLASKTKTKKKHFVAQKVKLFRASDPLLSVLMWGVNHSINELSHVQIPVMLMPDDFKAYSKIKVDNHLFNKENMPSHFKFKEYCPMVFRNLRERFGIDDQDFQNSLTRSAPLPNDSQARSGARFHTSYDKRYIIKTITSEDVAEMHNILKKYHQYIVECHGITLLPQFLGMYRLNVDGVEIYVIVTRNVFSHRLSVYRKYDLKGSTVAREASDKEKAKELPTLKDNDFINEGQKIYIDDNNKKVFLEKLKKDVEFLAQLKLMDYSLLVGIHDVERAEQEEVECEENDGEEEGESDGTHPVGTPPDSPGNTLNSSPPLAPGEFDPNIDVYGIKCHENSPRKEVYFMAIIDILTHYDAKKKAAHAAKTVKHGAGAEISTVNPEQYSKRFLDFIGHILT
# CHK2, sequence (O96017 whole entry): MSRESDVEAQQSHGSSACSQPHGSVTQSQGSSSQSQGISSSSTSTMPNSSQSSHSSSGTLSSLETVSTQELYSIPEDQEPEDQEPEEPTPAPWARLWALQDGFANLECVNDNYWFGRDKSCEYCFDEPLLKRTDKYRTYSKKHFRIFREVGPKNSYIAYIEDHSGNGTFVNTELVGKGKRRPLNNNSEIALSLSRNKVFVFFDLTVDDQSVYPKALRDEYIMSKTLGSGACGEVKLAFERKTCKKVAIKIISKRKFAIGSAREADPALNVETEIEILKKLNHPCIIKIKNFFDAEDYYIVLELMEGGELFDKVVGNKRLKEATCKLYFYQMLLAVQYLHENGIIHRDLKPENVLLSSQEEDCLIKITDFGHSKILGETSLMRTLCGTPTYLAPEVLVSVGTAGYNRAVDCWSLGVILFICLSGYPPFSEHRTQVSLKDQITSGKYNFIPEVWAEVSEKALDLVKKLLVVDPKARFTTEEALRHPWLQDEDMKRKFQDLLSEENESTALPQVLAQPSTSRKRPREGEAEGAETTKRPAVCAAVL
# KHS1, sequence (Q9Y4K4 whole entry): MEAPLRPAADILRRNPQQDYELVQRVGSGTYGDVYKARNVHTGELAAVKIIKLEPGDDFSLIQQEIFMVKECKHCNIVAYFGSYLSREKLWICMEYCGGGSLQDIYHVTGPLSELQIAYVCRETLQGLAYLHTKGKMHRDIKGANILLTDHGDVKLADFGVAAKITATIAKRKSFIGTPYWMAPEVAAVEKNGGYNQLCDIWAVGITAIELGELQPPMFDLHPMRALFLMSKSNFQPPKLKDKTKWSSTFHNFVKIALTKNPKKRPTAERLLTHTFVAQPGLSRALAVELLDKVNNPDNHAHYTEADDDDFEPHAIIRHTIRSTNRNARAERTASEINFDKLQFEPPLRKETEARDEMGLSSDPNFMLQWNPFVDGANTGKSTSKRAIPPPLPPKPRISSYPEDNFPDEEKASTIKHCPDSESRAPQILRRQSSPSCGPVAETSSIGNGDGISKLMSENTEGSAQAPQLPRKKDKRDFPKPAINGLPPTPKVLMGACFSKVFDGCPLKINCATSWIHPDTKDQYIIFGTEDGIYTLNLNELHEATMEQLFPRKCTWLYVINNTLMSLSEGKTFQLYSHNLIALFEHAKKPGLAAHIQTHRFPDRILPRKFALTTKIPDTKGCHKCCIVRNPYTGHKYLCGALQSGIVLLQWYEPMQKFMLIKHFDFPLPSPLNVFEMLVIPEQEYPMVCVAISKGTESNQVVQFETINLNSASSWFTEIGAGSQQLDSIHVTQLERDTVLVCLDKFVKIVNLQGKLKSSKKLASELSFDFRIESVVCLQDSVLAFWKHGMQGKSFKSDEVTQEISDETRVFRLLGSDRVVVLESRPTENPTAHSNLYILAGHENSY
# IRAK1, sequence (P51617 whole entry): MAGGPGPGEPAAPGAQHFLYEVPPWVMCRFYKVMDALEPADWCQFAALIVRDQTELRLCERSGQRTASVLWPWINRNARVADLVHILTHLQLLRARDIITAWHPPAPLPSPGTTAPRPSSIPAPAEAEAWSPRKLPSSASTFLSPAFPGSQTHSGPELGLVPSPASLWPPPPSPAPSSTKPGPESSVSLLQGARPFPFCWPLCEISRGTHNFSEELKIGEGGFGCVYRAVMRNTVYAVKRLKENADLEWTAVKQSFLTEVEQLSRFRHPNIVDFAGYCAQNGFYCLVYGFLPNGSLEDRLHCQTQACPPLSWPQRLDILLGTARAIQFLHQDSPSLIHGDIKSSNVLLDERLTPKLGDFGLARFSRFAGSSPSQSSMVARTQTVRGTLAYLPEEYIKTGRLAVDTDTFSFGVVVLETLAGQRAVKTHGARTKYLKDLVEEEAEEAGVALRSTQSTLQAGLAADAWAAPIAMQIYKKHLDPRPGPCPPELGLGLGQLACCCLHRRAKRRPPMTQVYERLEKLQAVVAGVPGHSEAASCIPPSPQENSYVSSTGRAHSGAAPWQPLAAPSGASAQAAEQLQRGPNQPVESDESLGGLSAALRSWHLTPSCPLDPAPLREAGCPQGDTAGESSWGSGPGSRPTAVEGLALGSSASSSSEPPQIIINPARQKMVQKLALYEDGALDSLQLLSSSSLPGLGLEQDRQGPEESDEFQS
# CDC2, sequence (P06493 whole entry): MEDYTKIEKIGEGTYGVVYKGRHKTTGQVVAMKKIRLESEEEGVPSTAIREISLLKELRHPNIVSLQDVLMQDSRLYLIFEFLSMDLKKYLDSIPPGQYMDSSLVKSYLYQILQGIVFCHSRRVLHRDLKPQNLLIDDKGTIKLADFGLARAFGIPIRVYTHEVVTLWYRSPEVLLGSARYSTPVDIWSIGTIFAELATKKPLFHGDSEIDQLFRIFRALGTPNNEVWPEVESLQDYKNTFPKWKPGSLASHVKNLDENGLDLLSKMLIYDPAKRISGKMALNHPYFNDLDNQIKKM
# MARK4, sequence (Q96L34 whole entry): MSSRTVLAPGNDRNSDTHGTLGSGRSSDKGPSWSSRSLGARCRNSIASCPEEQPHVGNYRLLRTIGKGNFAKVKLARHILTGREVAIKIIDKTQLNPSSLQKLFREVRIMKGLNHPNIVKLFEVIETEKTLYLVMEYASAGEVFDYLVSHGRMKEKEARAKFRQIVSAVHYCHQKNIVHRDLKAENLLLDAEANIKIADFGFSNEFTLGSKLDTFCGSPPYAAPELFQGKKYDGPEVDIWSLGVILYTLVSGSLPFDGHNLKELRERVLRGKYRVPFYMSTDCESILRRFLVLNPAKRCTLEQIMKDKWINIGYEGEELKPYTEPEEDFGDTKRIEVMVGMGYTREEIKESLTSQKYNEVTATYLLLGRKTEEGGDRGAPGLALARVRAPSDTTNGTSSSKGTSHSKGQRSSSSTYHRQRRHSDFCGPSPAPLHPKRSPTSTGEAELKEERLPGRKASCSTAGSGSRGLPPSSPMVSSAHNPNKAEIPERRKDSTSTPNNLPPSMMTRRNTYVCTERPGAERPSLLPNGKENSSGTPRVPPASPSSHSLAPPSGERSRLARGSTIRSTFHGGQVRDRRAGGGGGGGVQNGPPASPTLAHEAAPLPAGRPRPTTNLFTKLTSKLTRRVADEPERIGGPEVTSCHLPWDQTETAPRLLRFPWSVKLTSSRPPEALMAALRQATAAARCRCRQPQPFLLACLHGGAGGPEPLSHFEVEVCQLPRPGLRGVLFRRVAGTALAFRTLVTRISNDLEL
smiles,measurement,setting,value
"Nc1ncc(-c2ccc(NS(=O)(=O)C3CC3)cc2OC2CCCCC2)cc1-c1ccc2c(c1)CCNC2=O [Compound I-65, N-(4-(6-amino-5-(1-oxo-1,2,3,4-tetrahydroisoquinolin-6-yl)pyridin-3-yl)-3-(cyclohexyloxy)phenyl) cyclopropanesulfonamide]",IC50,[1],> 900 nM
same,IC50,[2],< 40 nM
same,inhibition at 10 µM,[3]; [28],0%
same,inhibition at 10 µM,[3]; read-out: inhibition (10 μM),-21.2%
same,inhibition at 10 µM,[4]; [28],35 to 40%
same,inhibition at 10 µM,[4]; read-out: inhibition (10 μM),48%
same,inhibition at 10 µM,[5]; [28],0%
same,inhibition at 10 µM,[5]; read-out: inhibition (10 μM),-0.5%
same,% inhibition,"[6]; 10 μM, range class",0.0%
same,inhibition (10 μM),[6],31.3%
same,inhibition at 10 µM,[7]; [28],0%
same,inhibition at 10 µM,[7]; read-out: inhibition (10 μM),0.5%
same,inhibition at 10 µM,[8]; [28],0%
same,inhibition at 10 µM,[8]; read-out: inhibition (10 μM),11.2%
same,inhibition at 10 µM,[9]; [28],50 to 75%
same,inhibition at 10 µM,[9]; read-out:,69.4%
same,inhibition at 10 µM,[10]; [28],0%
same,inhibition at 10 µM,[10]; read-out: inhibition (10 μM),4.2%
same,inhibition at 10 µM,[11]; [28],0%
same,inhibition at 10 µM,[11]; read-out: inhibition (10 μM),-29.6%
same,inhibition at 10 µM,[12]; [28],0%
same,inhibition at 10 µM,[12]; read-out: inhibition (10 μM),-36%
same,inhibition at 10 µM,[13]; [28],0%
same,inhibition at 10 µM,[13]; read-out: inhibition (10 μM),27.8%
same,% inhibition,"[14]; 10 μM, range class",0.0%
same,inhibition (10 μM),[14],6.4%
same,inhibition at 10 µM,[15]; [28],50 to 75%
same,inhibition at 10 µM,[15]; read-out: inhibition (10 μM),73.3%
same,inhibition at 10 µM,[16]; [28],0%
same,inhibition at 10 µM,[16]; read-out: inhibition (10 μM),-0.2%
same,inhibition at 10 µM,[17]; [28],35 to 40%
same,inhibition at 10 µM,[17]; read-out: inhibition (10 μM),43.1%
same,inhibition at 10 µM,[18]; [28],0%
same,inhibition at 10 µM,[18]; read-out: inhibition (10 μM),-28.3%
same,inhibition at 10 µM,[19]; [28],0%
same,inhibition at 10 µM,[19]; read-out: inhibition (10 μM),-1.1%
same,% inhibition,"[20]; 10 μM, range class",0.0%
same,inhibition (10 μM),[20],3.0%
same,inhibition at 10 µM,[21]; [28],0%
same,inhibition at 10 µM,[21]; read-out: inhibition (10 μM),23.7%
same,inhibition at 10 µM,[22]; [28],0%
same,inhibition at 10 µM,[22]; read-out: inhibition (10 μM),9%
same,inhibition at 10 µM,[23]; [28],0%
same,inhibition at 10 µM,[23]; read-out: inhibition (10 μM),-64%
same,inhibition at 10 µM,[24]; [28],0%
same,inhibition at 10 µM,[24]; read-out: inhibition (10 μM),-4.6%
same,inhibition at 10 µM,[25]; [28],50 to 75%
same,inhibition at 10 µM,[25]; read-out: inhibition (10 μM),59.9%
same,inhibition at 10 µM,[26]; [28],0%
same,inhibition at 10 µM,[26]; read-out: inhibition (10 μM),30.6%
same,inhibition at 10 µM,[27],0%
